Data: patent US20230301890A1, “COMPOSITIONS COMPRISING UROLITHINS” (Amazentis SA, priority 2022, published 2023)
Entries after “also recorded” stand apart in the source; their conditions may differ.

Assays:
[1] = system: wrinkles in the periorbital regions; test: Aging study 2: skin roughness (wrinkle) by DermaTOP; type: in vivo, human; details: 1% UA creams, 2, 4 and 8 weeks, vs untreated side; listed as UA
Source text: Anti-wrinkle efficacy will be assessed in the periorbital regions by investigating the three-dimensional structure of the wrinkles (DermaTOP). Skin hydration, skin elasticity effects and skin barrier function will be investigated by Corneometer, Cutometer and Tewameter measurements. On a subgroup of 12 subjects the ceramide content, including barrier lipids, in the Stratum Corneum will be performed by Raman Spectroscopy. […]
DERMATOP blue (Eo Tech SA, Marcoussis France): Using phase-shifted and gray-coded measurements of human skin the three-dimensional surface structure of the investigated skin site is captured. […] The fringes that are projected under a defined triangulation angle onto the surface of the measured target with a sinus-like intensity of brightness are detected with a CCD camera. The three-dimensional skin surface profile is calculated from the position of the fringes in combination with the gray values of each pixel. From the captured three-dimensional structure, roughness parameters are calculated. […]

[2] = system: 3D reconstituted human epidermis (RHE); test: Gene expression in 3D reconstituted human epidermis after daily cream application; type: cell-based; details: UA 1% moisturizing cream daily for 3 days, vs Vehicle
Source text: Finally, we employed a model of 3D reconstituted human epidermis (RHE) applied daily with the UA 1% moisturizing cream for 3 days.

human skin = test: RNA-seq transcriptomics and GSEA of forearm skin biopsies (aging study 1); type: in vivo; details: 8 weeks; for expression of collagen genes (COL1A1, COL5A1, COL5A2, COL14A1, COL3A1) / gene set "collagen fibril organization" (Normalized Enrichment Score): 1% Mitopure product; for expression of collagen genes (COL1A1, COL5A1, COL5A2, COL14A1, COL3A1): change vs baseline normalized over placebo; for gene set "collagen fibril organization" (Normalized Enrichment Score): end of study vs baseline, normalized over placebo/vehicle
Description: In this study, a cosmetic product with a 1% concentration of the active Mitopure or a placebo product were tested on skin aging for 8 weeks. […] Gene set enrichment analysis (GSEA) was performed using the R package ClusterProfiler [Yu et al., 2012]. Briefly, in each comparison, genes were ranked by age beta score value, and the enrichment of a given gene set among up- or-down regulated genes was statistically tested. The minimum and maximum gene set sizes were set to 10 and 500, respectively. Resulting p-values were adjusted using the BH method. Terms with an adjusted p-value<0.05 were considered as statistically significant. To analyze mitochondrial effects biopsies will be taken from a subpanel on volar forearms prior and after 8 weeks of product application and will be analyzed for biomarkers by 3rd parties (See FIGS. 2 and 4). Gene set enrichment analysis (GSEA) will be employed to look for overrepresentation of known mitochondrial pathways and gene functional categories among the regulated genes expressed in human skin. Genes will be ranked by fold change (high to low) and filtered (unadjusted P value of 0.1 before using them) in the GSEA analysis to reduce the risk of false positives. Gene sets defined by the Gene Ontology (GO) Consortium (http://www.geneontology.org/) will be analyzed. We investigated biological pathways impacted by topical UA application performing RNA-seq transcriptomics of forearm skin biopsies from the aging study I. Gene set enrichment analysis (GSEA) was applied to identify significant pathways changed by UA comparing end of the study to baseline, and normalizing results over vehicle. […] We further studied which UA regulated pathways are involved in the natural skin aging process. […] This gene set includes collagen genes encoding for fibrillar type I and III collagen (FIG. 13B), known to decline in skin with chronological aging 13, photo-aging and smoking 14. […] Among them, […]-1, regulating 3D structure and elasticity 15 and AEBP, encoding for a collagen-interacting protein required for optimal tissue repair 16 (FIG. 13B).

[3] = system: Normal Adult Human Dermal Fibroblasts (NHDF-Ad); test: RNA sequencing gene expression in human primary dermal fibroblasts; type: cell-based; details: for expression of MMP1: vs DMSO/vehicle
Description: (§1) Study was conducted on Normal Adult Human Dermal Fibroblasts (NHDF-Ad) from two pooled donors (Catalog #: CC-2511) and Normal Adult Human Epidermal Keratinocytes (NHEK-Ad) from two pooled donors (Catalog #: 00192627, Lonza). The primary skin cells were amplified in flask and seeded in 12-well cell culture plates, filled with 1 mL of culture medium and then incubated at 37° C. with 5% CO2 and saturated hygrometry. The basic culture medium of human dermal fibroblasts was composed of FBM™ medium (Fibroblast Growth Basal Medium) supplemented with insulin 0.1%, hFGF-B 0.1%, GA-1000 0.1% and FBS 2%. The basic culture medium of human keratinocytes was composed of KBM™ Gold medium (Keratinocytes Basal Medium) supplemented with Hydrocortisone, Transferrin, Epinephrine, Gentamycin, Amphotericin B, BPE, hEGF and Insulin. Primary cells were treated at confluency (approximatively 250000 cells per well) with 0.1% DMSO (control), 2.5 μM and 10 μM of Urolithin A for 24 h, and harvested for RNA sequencing and expression profiling using the NGS platform.

[4] = system: Normal Adult Human Epidermal Keratinocytes (NHEK-Ad); test: RNA sequencing gene expression in human primary keratinocytes; type: cell-based; details: for expression of autophagy/mitophagy and mitochondrial function genes / expression of MMP1: vs DMSO/vehicle
Description: as §1

With `O=c1oc2cc(O)ccc2c2ccc(O)cc12` [Urolithin A] the “wrinkles (finer and rougher skin structures, Ra and Rz)” value [1] was “significant anti-wrinkle effects; also recorded: significant impact on reducing wrinkles”, the “MMP1 and MMP3 gene expression” value [2] was “No change” and the “mitophagy and autophagy genes” value [2] was “early activation”. For the same molecule, the “expression of collagen genes (COL1A1, COL5A1, COL5A2, COL14A1, COL3A1)” value (human skin) was “significant up-regulation”, the “expression of collagen genes (COL1A1, COL5A1, COL5A2, COL14A1, COL3A1)” value (human skin; listed as Mitopure) was “increased expression; also recorded: all upregulated; also recorded: improved expression” and the “gene set "collagen fibril organization" (Normalized Enrichment Score)” value (human skin) was “significantly upregulated; also recorded: positive”. The “gene set "collagen fibril organization" (Normalized Enrichment Score)” value (human skin; listed as UA) was “most significantly activated pathway”, the “genes involved in skin homeostasis (EMILIN-1, AEBP)” value (human skin; UA 1% topical) was “rescued age-associated decline” and the “gene sets related to chemokine response” value (human skin; UA 1% topical, normalized over vehicle) was “reducing”. The “collagen gene expression (COL1A1)” value ([3]; 2.5 μM or 10 μM, 24 hours) was “did not alter”, the “expression of MMP1” value ([3]; 2.5 μM or 10 μM, 24 hours) was “decreases” and the “expression of MMP1” value ([3]; 2.5 μM or 10 μM, 24 hours, listed as UA) was “suppressed the expression”. For the same molecule, the “expression of mitophagy genes PARKIN and PINK1 and autophagy genes MAP1LC3 and ULK1” value ([3]; 2.5 μM or 10 μM, 24 hours, vs vehicle) was “dose-dependent increase”, the “expression of mitophagy marker PINK1” value ([3]; 2.5 uM or 10 uM, vs DMSO) was “increased” and the “expression of genes encoding collagen degradation enzymes (MMPs, ADAMs)” value ([4]; 2.5 uM or 10 uM, 24 h, vs DMSO) was “reduces expression”. For the same molecule, the “expression of genes encoding proinflammatory cytokines (IL1A, IL1B)” value ([4]; 2.5 uM or 10 uM, 24 h, vs DMSO) was “reduces expression”, the “expression of autophagy/mitophagy and mitochondrial function genes” value ([4]; 2.5 uM or 10 uM, 24 h) was “increases the expression” and the “expression of autophagy/mitophagy and mitochondrial function genes” value ([4]; 2.5 uM or 10 uM, 24 h, listed as UA) was “upregulated”. The “expression of mitophagy marker PINK1” value ([4]; 2.5 uM or 10 uM, vs DMSO) was “increased”, the “expression of MMP1” value ([4]; 24 h) was “decreases” and the “expression of MMP1” value ([4]; 24 h, listed as UA) was “drastic downregulation”. The “expression of MMP3” value ([4]; 24 h, vs vehicle) was “drastic downregulation”.
